target: T1, MAGL (Homo sapiens, UniProt Q99685); assay: 2-AG assay (MAGL inhibitory activity, hydrolysis of 2-arachidonoylglycerol to arachidonic acid followed by mass spectrometry); type: biochemical; conditions: 8 μM 2-arachidonoylglycerol, 15 min pre-incubation, 30 min incubation at RT, RapidFire MS readout
T1 sequence (Q99685 1-303): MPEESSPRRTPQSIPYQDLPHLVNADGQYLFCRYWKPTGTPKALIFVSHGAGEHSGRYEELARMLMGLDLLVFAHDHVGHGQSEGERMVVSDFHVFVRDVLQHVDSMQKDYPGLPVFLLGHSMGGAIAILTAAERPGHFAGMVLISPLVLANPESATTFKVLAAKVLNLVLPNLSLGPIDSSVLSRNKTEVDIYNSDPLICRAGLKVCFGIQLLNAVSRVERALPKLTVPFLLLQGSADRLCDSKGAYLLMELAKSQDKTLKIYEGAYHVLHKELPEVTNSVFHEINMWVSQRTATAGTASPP
Outline: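 Human MAGL ([…] final) pre-incubated 15 min at RT with compound in 50 mM TRIS, 1 mM EDTA, 0.01% Tween-20, 2.5% DMSO; 8 μM 2-AG then added for 30 min at RT. Acetonitrile quench with d8-arachidonic acid; arachidonic acid measured by RapidFire SPE–MS/MS, activity from arachidonic acid/d8 ratio.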

**Q.** With `O=C(N1CC(c2ccc(OC(F)(F)F)cc2F)C1)N1CC2(CC(n3cnc(C4CC4)n3)C2)C1` [Example 86, [6-(3-cyclopropyl-1,2,4-triazol-1-yl)-2-azaspiro[3.3]heptan-2-yl]-[3-[2-fluoro-4-(trifluoromethoxy)phenyl]azetidin-1-yl]methanone] as the compound, how does the IC50 read?
**A.** 0.4 nM

**Q.** With `NC(=O)[C@H]1CC(F)(F)CCN1c1ccc(C2CN(C(=O)N3CC4(CC(n5cnc(C6CC6)n5)C4)C3)C2)cc1` (single isomer, unassigned) [Example 493] as the compound, how does the IC50 read?
**A.** 1.28 nM

**Q.** `O=C(N1CCC(NS(=O)(=O)c2ccc(C(F)(F)F)cc2)CC1)N1CC2(CC(n3cnc(C4CC4)n3)C2)C1` [Example 321, N-[1-[6-(3-cyclopropyl-1,2,4-triazol-1-yl)-2-azaspiro[3.3]heptane-2-carbonyl]-4-piperidyl]-4-(trifluoromethyl) benzenesulfonamide] was tested. Which IC50 did it give?
**A.** 331 nM

**Q.** `CS(=O)(=O)c1ccc(-c2ccc(C3CN(C(=O)N4CC5(CC(c6ccc(C(F)(F)F)nc6)C5)C4)C3)cn2)c(Cl)c1` [Example 538, [3-[6-(2-chloro-4-methylsulfonyl-phenyl)-3-pyridyl]azetidin-1-yl]-[6-[6-(trifluoromethyl)-3-pyridyl]-2-azaspiro[3.3]heptan-2-yl]methanone] was tested. Which IC50 did it give?
**A.** 381 nM

**Q.** With `O=C(N1CC(OCc2ccc(S(F)(F)(F)(F)F)cc2F)C1)N1CC2(CC(n3cnc(C4CC4)c3)C2)C1` [Example 105, [6-(4-cyclopropylimidazol-1-yl)-2-azaspiro[3.3]heptan-2-yl]-[3-[[2-fluoro-4-(pentafluoro-λ^6-sulfanyl)phenyl]methoxy]azetidin-1-yl]methanone] as the compound, how does the IC50 read?
**A.** 3.9 nM

**Q.** With “N-[2-[6-[3-(1- hydroxycyclopropyl)- 1,2,4-triazol-1-yl]-2- azaspiro[3.3]heptane-2- carbonyl]-2- azaspiro[3.3]heptan-6- yl]-3- (trifluoromethyl) benzenesulfonamide [Example 401]” as the compound, how does the IC50 read?
**A.** 9.45 nM

**Q.** For `O=C(N1CC2(CC(n3cnc(C4CC4)n3)C2)C1)N1CC2(C1)CN(S(=O)(=O)CCc1ccc(F)cc1)C2` [Example 272, [6-(3-cyclopropyl-1,2,4-triazol-1-yl)-2-azaspiro[3.3]heptan-2-yl]-[2-[2-(4-fluorophenyl)ethylsulfonyl]-2,6-diazaspiro[3.3]heptan-6-yl]methanone], which IC50 is on record?
**A.** 34.3 nM

**Q.** Which IC50 does the source give for `Cc1cc(O[C@H]2C[C@@H]3CN(C(=O)N4CC5(CC(n6cnc(C7CC7)n6)C5)C4)C[C@@H]3C2)ccc1F` [Example 125, [6-(3-cyclopropyl-1,2,4-triazol-1-yl)-2-azaspiro[3.3]heptan-2-yl]-[rac-(3aS,6aR)-5-(4-fluoro-3-methyl-phenoxy)-3,3a,4,5,6,6a-hexahydro-1H-cyclopenta[c]pyrrol-2-yl]methanone] here?
**A.** 4.6 nM

**Q.** `O=C(N1CCC(C(c2ccc(F)cc2)c2nc(C3CC3)no2)CC1)N1CC2(CC(n3cnc(C4CC4)n3)C2)C1` (centres unmarked) [Example 207, [4-[(3-cyclopropyl-1,2,4-oxadiazol-5-yl)-(4-fluorophenyl)methyl]-1-piperidyl]-[6-(3-cyclopropyl-1,2,4-triazol-1-yl)-2-azaspiro[3.3]heptan-2-yl]methanone] was tested. Which IC50 did it give?
**A.** 1 nM

**Q.** `O=C(N1CC2(CC(Oc3ccc(C(F)(F)F)cn3)C2)C1)N1CC2(CC(n3cnc(C4CC4)n3)C2)C1` [Example 52, [6-(3-cyclopropyl-1,2,4-triazol-1-yl)-2-azaspiro[3.3]heptan-2-yl]-[6-[[5-(trifluoromethyl)-2-pyridyl]oxy]-2-azaspiro[3.3]heptan-2-yl]methanone] was tested. Which IC50 did it give?
**A.** 0.4 nM

**Q.** With `NC(=O)c1ccccc1-c1ccc(C2CN(C(=O)N3CC4(CC(n5cnc(C(F)(F)F)n5)C4)C3)C2)cc1` [Example 429, 2-[4-[1-[6-[3-(trifluoromethyl)-1,2,4-triazol-1-yl]-2-azaspiro[3.3]heptane-2-carbonyl]azetidin-3-yl]phenyl]benzamide] as the compound, how does the IC50 read?
**A.** 0.66 nM

**Q.** Which IC50 does the source give for `NC(=O)c1ccc(S(=O)(=O)N2CC3(CN(C(=O)N4CC5(CC(n6cnc(C7CC7)n6)C5)C4)C3)C2)cc1` [Example 298, 4-[[6-[6-(3-cyclopropyl-1,2,4-triazol-1-yl)-2-azaspiro[3.3]heptane-2-carbonyl]-2,6-diazaspiro[3.3]heptan-2-yl]sulfonyl]benzamide] here?
**A.** 95.5 nM

**Q.** With `Cc1ccc(OC2CN(C(=O)N3CC4(CC(n5cnc(C6CC6)n5)C4)C3)C2)c(Cl)c1` [Example 97, (3-(2-chloro-4-methylphenoxy)azetidin-1-yl)(6-(3-cyclopropyl-1H-1,2,4-triazol-1-yl)-2-azaspiro[3.3]heptan-2-yl)methanone] as the compound, how does the IC50 read?
**A.** 3.4 nM

**Q.** For `O=C(N1CC(c2ccc(N3CC[C@@H](C(F)(F)F)C3)nc2)C1)N1CC2(CC(n3cnc(C(F)(F)F)n3)C2)C1` [Example 427, [3-[6-[(3R)-3-(trifluoromethyl)pyrrolidin-1-yl]-3-pyridyl]azetidin-1-yl]-[6-[3-(trifluoromethyl)-1,2,4-triazol-1-yl]-2-azaspiro[3.3]heptan-2-yl]methanone], which IC50 is on record?
**A.** 0.53 nM

**Q.** `O=C(N1CC2(CC(Cc3ccc(Cl)cn3)C2)C1)N1CC2(C1)CN(c1cncc(F)c1)C2` [Example 348, [6-[(5-chloro-2-pyridyl)methyl]-2-azaspiro[3.3]heptan-2-yl]-[6-(5-fluoro-3-pyridyl)-2,6-diazaspiro[3.3]heptan-2-yl]methanone] was tested. Which IC50 did it give?
**A.** 66.3 nM

**Q.** Which IC50 does the source give for `O=C(N1CC(OCc2ccc(F)cc2Cl)C1)N1CC2(CC(n3cnc(C4CC4)n3)C2)C1` [Example 77, (3-((2-chloro-4-fluorobenzyl)oxy)azetidin-1-yl)(6-(3-cyclopropyl-1H-1,2,4-triazol-1-yl)-2-azaspiro[3.3]heptan-2-yl)methanone] here?
**A.** 9.2 nM

**Q.** Which IC50 does the source give for `O=C(N1CC2(CC(n3cnc(C4(O)CC4)n3)C2)C1)N1CC2(C1)CN(S(=O)(=O)c1cccc(OC(F)(F)F)c1)C2` [Example 497, [6-[3-(1-hydroxycyclopropyl)-1,2,4-triazol-1-yl]-2-azaspiro[3.3]heptan-2-yl]-[2-[3-(trifluoromethoxy)phenyl]sulfonyl-2,6-diazaspiro[3.3]heptan-6-yl]methanone] here?
**A.** 84 nM

**Q.** `O=C(N1CC(Oc2ccc(C3CC3)cc2F)C1)N1CC2(CC(n3cnc(C4CC4)n3)C2)C1` [Example 190, [3-(4-cyclopropyl-2-fluoro-phenoxy)azetidin-1-yl]-[6-(3-cyclopropyl-1,2,4-triazol-1-yl)-2-azaspiro[3.3]heptan-2-yl]methanone] was tested. Which IC50 did it give?
**A.** 0.2 nM

**Q.** For `Cc1cc(C)n(C23CC(C4CN(C(=O)N5CC6(CC(n7cnc(C8(O)CC8)n7)C6)C5)C4)(C2)C3)n1` [Example 356, [3-[3-(3,5-dimethylpyrazol-1-yl)-1-bicyclo[1.1.1]pentanyl]azetidin-1-yl]-[6-[3-(1-hydroxycyclopropyl)-1,2,4-triazol-1-yl]-2-azaspiro[3.3]heptan-2-yl]methanone], which IC50 is on record?
**A.** 1090 nM

**Q.** `COc1cc(O[C@H]2C[C@@H]3CN(C(=O)N4CC5(CC(n6cnc(C7CC7)n6)C5)C4)C[C@@H]3C2)ccc1F` [Example 131, [6-(3-cyclopropyl-1,2,4-triazol-1-yl)-2-azaspiro[3.3]heptan-2-yl]-[rac-(3aS,6aR)-5-(4-fluoro-3-methoxy-phenoxy)-3,3a,4,5,6,6a-hexahydro-1H-cyclopenta[c]pyrrol-2-yl]methanone] was tested. Which IC50 did it give?
**A.** 5.9 nM
